The values that follow come from US20180214400A1, “THE USE OF KAURANES COMPOUNDS IN THE MANUFACTURE OF MEDICAMENT FOR TREATMENT OF CADIAC HYPERTROPY AND PULMONARY HYPERTENSION” (KEY-PHARMA BIOMEDICAL INC., priority 2015, published 2018).

In one assay the test system is cGMP. Briefly: cGMP ELISA in neonatal rat fibroblasts. The format is cell-based. Particulars: 100 um, 3 h. The method, then:
Neonatal rat cardiac fibroblasts were isolated from 1-2-day-old Sprague-Dawley rats as described previously. Briefly, hearts from newborn 1-2-day-old Sprague-Dawley rats were minced on ice, and cells were isolated by trypsin incubation at 37° C. Non-cardiomyocytes were separated from the cardiomyocytes by differential pre-plating, and then cardiomyocytes were removed with fibroblasts seeded in culture dishes. The cells were passaged after 3 days, using a 0.05% trypsin solution. Cells were cultured in DEME/F12 medium with 5% fetal calf serum, and maintained at 37° C., 5% CO2 condition. cGMP levels in the neonatal rat fibroblasts after treated with vehicle or compound A or sildenafil were measured with an ELISA kit following the manufacture's instruction. Quiescent cells were cultured with different doses of compound A ([…]) or sildenafil ([…]) for 3 h. After treatment, the cells were lysed with 0.1N HCl, and performed cGMP ELISA assay.
Background: In an ELISA, binding on a coated surface is turned into a signal by an enzyme label.

Assay [1] has as its system hypoxia-induced PHT in rats. The note with it: chronic hypoxia; cited from earlier work.
The subject of assay [2] is Diabetic cardiomyopathy (DCM) rats. The assay is described as follows: Streptozotocin-induced diabetic cardiomyopathy. The note with it: STZ diabetes, 12-16 weeks. The class given is in vivo, Wistar rats. The protocol:
Diabetic cardiomyopathy (DCM) Diabetic induced injury to the myocardium. DCM, induced by streptozotocin (STZ), along with the associated changes occurring in inflammation, oxidative stress and fibrosis markers. Wistar rats were randomly divided into four groups: group A (Normal control), group B (Diabetes), group […] group D (DM/TMZ, trimetazidine treatment). After 12-16 weeks, left ventricular function was measured by the pressure-volume system. Cardiac tissues were prepared for histological study by hematoxlyin and eosin, Sirius red staining as well as for assays of oxidative stress. Oxidative stress, inflammation, and fibrosis markers were evaluated by molecular biological techniques. All data were measured morphometrically and statistically analyzed.

A further assay relates to TAC rats. Briefly: Left ventricular pressure-volume relationship in TAC rats. The format is in vivo. Particulars: 3 or 9 weeks. The method, then: The left ventricular pressure and volume were measured simultaneously. Tow parameters can be derived by studying of the relationship of pressure-volume during changes of either preload or afterload. ESPVR, the slope of end-systolic pressure-volume relationships which represent end-systolic elastics; EDPVR, the slope of end-diastolic pressure-volume relationship which, represents cardiac stiffness. In hypertrophy hearts after 3 or 9 weeks TAC, the cardiac pump dysfunction was manifested by a significant decreased ESPVR and increased in EDPVR. […] Therefore, compound A are useful to preserve a normal elasticity during contraction and reduce diastolic stiffness of hearts with high pressure load as in TAC rats.
Heart hemodynamic Analysis was conducted by pressure-volume (PV) catheter. Rats were anesthetized and placed on a warming pad (37° C.). Underwent tracheostomy, rats were then ventilated by using a positive pressure with a tidal volume of 4-6 ml/200 g at 70 breaths/min using room air. […] After stabilization of the signal for 10-15 min, baseline PV loops were recorded at a steady state. […] After data were recorded under steady-state conditions and during preload reduction, parallel conductance values were obtained by the injection of 40 μl hypertonic saline (30%) into the right jugular vein. […] Data were recorded on separate channels of the PowerLab system. […]

The subject of another assay is BNP. The assay is described as follows: Isoproterenol-induced cardiomyocyte hypertrophy (BNP RT-PCR, western blot, size). The class given is cell-based. The source says: BNP is an important marker for hypertrophy.
In general terms: A western blot detects proteins with antibodies after separation by electrophoresis.

Another assay concerns male rats. The assay is described as follows: Penile erection in male rats. The format is in vivo. The note with it: relative higher dose.
A further assay relates to dogs. Briefly: Penile erection in male dogs. The note with it: relative higher dose. The format is in vivo.
Assay [3] deals with mitochondrial KATP channel. Briefly: Mitochondrial KATP channel effect. An excerpt: This invention disclosed exclusively that compound A per se had no effect on either sarcolemma or mitochondrial KATP channel. Instead, compound A is acting only as a sensitizer which render the KATP channel response greater to known KATP channel openers, such as pinacidil and to change of ATP.

Assay [4] concerns cerebral ischemia/reperfusion (I/R) injury. Particulars: within 24 hours; cited from earlier work.

In turn, `CCCc1nn(C)c2c(=O)[nH]c(-c3cc(S(=O)(=O)N4CCN(C)CC4)ccc3OCC)nc12` [sildenafil, reference compound] showed a Stimulated production of cGMP in the assay on cGMP of 141 ± 27%. In addition, the “rise in pulmonary artery pressure and vascular remodeling” value in assay [1] is recorded as “attenuated”.

Take `C[C@@]12CC[C@@H]3[C@@](CC[C@H]4[C@@]3(C)CCC[C@@]4(C)C(=O)O)(CC1=O)C2` [Compound A, (4α,8β,13β)-13-methyl-16-oxo-17-norkauran-18-oic acid]: the cardiac hypertrophy entry in [2] is recorded as “significant inhibited”. For the same compound, the “deteriorations in ESPVR and EDPVR” value with TAC rats is given as “prevented the deteriorations”. Also, in the assay with BNP (cardiomyocytes, isoproterenol stimulus), the “increase of BNP production and BNP mRNA expression” value is given as “greatly reduce”. Further, the “increased size of myocardium induced by isoproterenol” value in the assay with BNP (isoproterenol) is “significantly reduce”. Also, the penile erection result with male rats and with dogs was “long lasting penile erection” throughout. Besides, the “effect on mitochondrial KATP channel per se” value in [3] is recorded as “had no effect”. Further, the “protection against cerebral I/R injury” value in [4] is “protect”.
